The results in this text go back to PubChem BioAssay AID248 (DTP/NCI, 2004).

The structures appear in SMILES notation. Where “and” joins values, the source holds several entries; their conditions need not be identical. Identical values can stand only once. Toxic doses and inconclusive results are not listed.

The subject of this assay is L1210 leukemia ip in BDF1 mice, survival T/C. As to the kind of experiment: NCI In Vivo Anticancer Drug Screen. Data for tumor model L1210 Leukemia (intraperitoneal) in B6D2F1 (BDF1) mice. Particulars: endpoint: mean survival time, higher = longer survival. The method in brief:
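Transplantable tumor model; survival measured in treated vs vehicle control mice. Value = treated/control.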

[1] abbreviates: dose: 100.0 mg/kg/injection, schedule: Q01DX009 (ip), vehicle: saline with Tween-80.
Where [2] appears, read: dose: 100.0 mg/kg/injection, schedule: Q04DX003 (ip), vehicle: saline with Tween-80.
[3] abbreviates: dose: 200.0 mg/kg/injection, schedule: Q01DX009 (ip), vehicle: saline with Tween-80.
Setting [4] is: dose: 200.0 mg/kg/injection, schedule: Q04DX003 (ip), vehicle: saline with Tween-80.
[5] abbreviates: dose: 400.0 mg/kg/injection, schedule: Q01DX009 (ip), vehicle: saline with Tween-80.
The mark [6] stands for this setting: dose: 400.0 mg/kg/injection, schedule: Q04DX003 (ip), vehicle: saline with Tween-80.

On to `COc1ccc([N+](=O)[O-])cc1NS(=O)(=O)c1c(C)cc(C)cc1C`, for which the T/C by setting is: (dose: 50.0 mg/kg/injection, schedule: Q01DX009 (ip), vehicle: saline with Tween-80) 94 % of control and 88 % of control; (dose: 100.0 mg/kg/injection, schedule: Q01DX001 (ip), vehicle: saline with Tween-80) 92 % of control; under setting [1], 94 % of control and 97 % of control; (dose: 100.0 mg/kg/injection, schedule: Q04DX002 (ip), vehicle: saline with Tween-80) 107 % of control; under setting [2], 98 % of control; (dose: 200.0 mg/kg/injection, schedule: Q01DX001 (ip), vehicle: saline with Tween-80) 104 % of control. For the same compound, the T/C was 97 % of control and 103 % of control under setting [3]; 103 % of control (dose: 200.0 mg/kg/injection, schedule: Q04DX002 (ip), vehicle: saline with Tween-80); 97 % of control under setting [4]; 92 % of control (dose: 400.0 mg/kg/injection, schedule: Q01DX001 (ip), vehicle: saline with Tween-80); 97 % of control under setting [5]; 103 % of control (dose: 400.0 mg/kg/injection, schedule: Q04DX002 (ip), vehicle: saline with Tween-80). Besides, the T/C under setting [6] was 93 % of control.
Regarding `Clc1ccc(C(=Cc2ccccc2Br)c2ccc(Cl)cc2)cc1`, the T/C runs as follows: under setting [1], 100 % of control; under setting [2], 98 % of control; under setting [3], 100 % of control; under setting [4], 98 % of control; under setting [5], 96 % of control; under setting [6], 101 % of control.
For `CN[C@H]1CCc2cc(OC)c(OC)c(OC)c2-c2ccc(OC)c(=O)cc21`, the T/C (dose: 0.14 mg/kg/injection, schedule: Q01DX009 (ip), vehicle: saline) was 95 % of control; the T/C (dose: 0.23 mg/kg/injection, schedule: Q01DX009 (ip), vehicle: saline) is 104 % of control; the T/C (dose: 0.39 mg/kg/injection, schedule: Q01DX009 (ip), vehicle: saline) is 112 % of control; the T/C (dose: 0.39 mg/kg/injection, schedule: Q04DX003 (ip), vehicle: saline) is 101 % of control; the T/C (dose: 0.65 mg/kg/injection, schedule: Q01DX009 (ip), vehicle: saline) is 110 % of control; the T/C (dose: 0.65 mg/kg/injection, schedule: Q04DX003 (ip), vehicle: saline) is 102 % of control. In addition, the T/C is 118 % of control (dose: 1.0 mg/kg/injection, schedule: Q03HX008 (ip), vehicle: saline); 110 % of control (dose: 1.08 mg/kg/injection, schedule: Q01DX009 (ip), vehicle: saline); 101 % of control (dose: 1.08 mg/kg/injection, schedule: Q04DX003 (ip), vehicle: saline); 101 % of control (dose: 1.8 mg/kg/injection, schedule: Q04DX003 (ip), vehicle: saline); 106 % of control (dose: 2.0 mg/kg/injection, schedule: Q01DX004 (ip), vehicle: saline); 103 % of control (dose: 2.0 mg/kg/injection, schedule: Q01DX004 (oral), vehicle: saline). The T/C (dose: 2.0 mg/kg/injection, schedule: Q03HX008 (ip), vehicle: saline) is 120 % of control; the T/C (dose: 3.0 mg/kg/injection, schedule: Q01DX001 (ip), vehicle: saline) was 100 % of control; the T/C (dose: 3.0 mg/kg/injection, schedule: Q04DX003 (ip), vehicle: saline) was 95 % of control; the T/C (dose: 4.0 mg/kg/injection, schedule: Q01DX001 (oral), vehicle: saline) is 103 % of control; the T/C (dose: 4.0 mg/kg/injection, schedule: Q01DX004 (ip), vehicle: saline) is 106 % of control; the T/C (dose: 4.0 mg/kg/injection, schedule: Q01DX004 (oral), vehicle: saline) is 111 % of control. Also, the T/C is, setting by setting: (dose: 5.0 mg/kg/injection, schedule: Q01DX001 (ip), vehicle: saline) 103 % of control; (dose: 5.3 mg/kg/injection, schedule: Q01DX001 (ip), vehicle: saline) 102 % of control; (dose: 8.0 mg/kg/injection, schedule: Q01DX001 (ip), vehicle: saline) 101 % of control and 102 % of control; (dose: 8.0 mg/kg/injection, schedule: Q01DX001 (oral), vehicle: saline) 108 % of control; (dose: 8.0 mg/kg/injection, schedule: Q01DX004 (ip), vehicle: saline) 113 % of control; (dose: 8.0 mg/kg/injection, schedule: Q01DX004 (oral), vehicle: saline) 111 % of control. In addition, the T/C by setting is: (dose: 8.0 mg/kg/injection, schedule: Q03HX008 (ip), vehicle: saline) 156 % of control; (dose: 8.0 mg/kg/injection, schedule: Q## X002 (ip), vehicle: saline) 119 % of control; (dose: 8.0 mg/kg/injection, schedule: Q## X003 (ip), vehicle: saline) 100 % of control; (dose: 8.0 mg/kg/injection, schedule: Q## X008 (ip), vehicle: saline) 107 % of control; (dose: 8.0 mg/kg/injection, schedule: Q## X016 (ip), vehicle: saline) 110 % of control; (dose: 9.0 mg/kg/injection, schedule: Q01DX001 (ip), vehicle: saline) 104 % of control. Further, the T/C reads like this: (dose: 12.0 mg/kg/injection, schedule: Q01DX001 (ip), vehicle: saline) 104 % of control; (dose: 16.0 mg/kg/injection, schedule: Q01DX001 (ip), vehicle: saline) 105 % of control; (dose: 16.0 mg/kg/injection, schedule: Q01DX001 (oral), vehicle: saline) 109 % of control; (dose: 16.0 mg/kg/injection, schedule: Q01DX004 (ip), vehicle: saline) 118 % of control; (dose: 16.0 mg/kg/injection, schedule: Q## X002 (ip), vehicle: saline) 98 % of control; (dose: 16.0 mg/kg/injection, schedule: Q## X003 (ip), vehicle: saline) 112 % of control. Besides, the T/C is, setting by setting: (dose: 16.0 mg/kg/injection, schedule: Q## X016 (ip), vehicle: saline) 112 % of control; (dose: 16.0 mg/kg/injection, schedule: Q## X024 (ip), vehicle: saline) 100 % of control; (dose: 18.0 mg/kg/injection, schedule: Q01DX001 (ip), vehicle: saline) 114 % of control; (dose: 32.0 mg/kg/injection, schedule: Q01DX001 (ip), vehicle: saline) 101 % of control and 103 % of control; (dose: 32.0 mg/kg/injection, schedule: Q01DX001 (oral), vehicle: saline) 119 % of control and 124 % of control; (dose: 32.0 mg/kg/injection, schedule: Q01DX009 (ip), vehicle: saline) 102 % of control. Moreover, the T/C runs as follows: (dose: 32.0 mg/kg/injection, schedule: Q## X002 (ip), vehicle: saline) 117 % of control; (dose: 32.0 mg/kg/injection, schedule: Q## X003 (ip), vehicle: saline) 104 % of control; (dose: 32.0 mg/kg/injection, schedule: Q## X016 (ip), vehicle: saline) 110 % of control; (dose: 64.0 mg/kg/injection, schedule: Q01DX001 (ip), vehicle: saline) 114 % of control and 116 % of control; (dose: 64.0 mg/kg/injection, schedule: Q## X016 (ip), vehicle: saline) 89 % of control; (dose: 128.0 mg/kg/injection, schedule: Q01DX001 (ip), vehicle: saline) 124 % of control. The T/C (dose: 256.0 mg/kg/injection, schedule: Q01DX001 (ip), vehicle: saline) is 123 % of control.
Regarding `O=c1c(N=Nc2ccc(Br)cc2)c(O)n(-c2ccc(Br)cc2)c(=S)n1-c1ccccc1`, the T/C runs as follows: (dose: 37.5 mg/kg/injection, schedule: Q01DX001 (ip), vehicle: Klucel (hydroxypropylcellulose) (HPC)) 108 % of control; (dose: 75.0 mg/kg/injection, schedule: Q01DX001 (ip), vehicle: Klucel (hydroxypropylcellulose) (HPC)) 110 % of control; (dose: 150.0 mg/kg/injection, schedule: Q01DX001 (ip), vehicle: Klucel (hydroxypropylcellulose) (HPC)) 102 % of control.
As to `O=C(Nc1cc(C2=NCCN2)cc(C2=NCCN2)c1)Nc1cc(C2=NCCN2)cc(C2=NCCN2)c1`, the T/C by setting is: (dose: 0.75 mg/kg/injection, schedule: Q01DX Z (ip), vehicle: carboxymethylcellulose (CMC)) 101 % of control; (dose: 1.5 mg/kg/injection, schedule: Q01DX Z (ip), vehicle: carboxymethylcellulose (CMC)) 98 % of control; (dose: 3.0 mg/kg/injection, schedule: Q01DX Z (ip), vehicle: carboxymethylcellulose (CMC)) 95 % of control; (dose: 6.0 mg/kg/injection, schedule: Q01DX Z (ip), vehicle: carboxymethylcellulose (CMC)) 101 % of control.
